Tests used:
[1] = target: Urease (Canavalia ensiformis) (UniProt P07374); assay: Inhibition of Canavalia ensiformis (jack bean) urease assessed as ammonia production using urea as substrate at 10 uM after 15 min by indophenol method
[2] = target: Urease (Canavalia ensiformis) (UniProt P07374); assay: Inhibition of Canavalia ensiformis (jack bean) urease assessed as ammonia production using urea as substrate at 1 uM after 15 min by indophenol method
[3] = target: Urease (Canavalia ensiformis) (UniProt P07374); assay: Inhibition of Canavalia ensiformis (jack bean) urease assessed as ammonia production using urea as substrate at 0.01 uM after 15 min by indophenol method
[4] = target: Urease (Canavalia ensiformis) (UniProt P07374); assay: Inhibition of Canavalia ensiformis (jack bean) urease assessed as ammonia production using urea as substrate at 100 uM after 15 min by indophenol method
[5] = target: Urease (Canavalia ensiformis) (UniProt P07374); assay: Inhibition of Canavalia ensiformis (jack bean) urease assessed as ammonia production using urea as substrate at 0.1 uM after 15 min by indophenol method

Chain of Urease (Canavalia ensiformis) (P07374 whole entry, looked up): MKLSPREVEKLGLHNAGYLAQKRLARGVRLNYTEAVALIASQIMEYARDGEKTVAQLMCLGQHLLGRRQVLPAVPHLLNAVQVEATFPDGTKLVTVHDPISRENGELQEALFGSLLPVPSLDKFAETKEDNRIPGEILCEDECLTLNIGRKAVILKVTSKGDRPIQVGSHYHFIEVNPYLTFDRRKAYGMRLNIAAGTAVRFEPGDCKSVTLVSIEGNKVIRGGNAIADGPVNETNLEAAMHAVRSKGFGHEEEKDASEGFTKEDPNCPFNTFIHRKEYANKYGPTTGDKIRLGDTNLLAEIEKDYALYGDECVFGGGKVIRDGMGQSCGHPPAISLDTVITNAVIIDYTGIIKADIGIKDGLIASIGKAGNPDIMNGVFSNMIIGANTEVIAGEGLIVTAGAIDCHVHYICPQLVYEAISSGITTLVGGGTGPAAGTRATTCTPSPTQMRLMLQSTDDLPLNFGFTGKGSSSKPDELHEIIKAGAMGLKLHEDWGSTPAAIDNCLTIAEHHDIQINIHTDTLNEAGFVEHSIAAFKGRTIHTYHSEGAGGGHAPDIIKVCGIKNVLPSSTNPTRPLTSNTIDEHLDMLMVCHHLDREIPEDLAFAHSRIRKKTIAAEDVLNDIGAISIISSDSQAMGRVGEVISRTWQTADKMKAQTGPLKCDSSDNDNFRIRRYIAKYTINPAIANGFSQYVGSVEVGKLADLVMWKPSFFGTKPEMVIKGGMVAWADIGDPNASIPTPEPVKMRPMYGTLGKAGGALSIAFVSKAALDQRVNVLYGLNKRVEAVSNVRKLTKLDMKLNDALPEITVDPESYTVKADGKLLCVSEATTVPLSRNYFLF

| SMILES | inhibition [1] [%] | inhibition [2] [%] | inhibition [3] [%] | inhibition [4] [%] | inhibition [5] [%] |
| --- | --- | --- | --- | --- | --- |
| CC1=CC2=NC(=O)/C(=C\NNC(=O)c3ccc(O)cc3)C(=O)N2C=C1 | 22 | 7 | -5 | 39 | -1 |
| CC1=CC2=NC(=O)/C(=C\Nc3cc(C)ccn3)C(=O)N2C=C1 | 20 | 16 | 1 | 33 | 6 |
| CC(=O)c1ccc(N/C=C2\C(=O)N=C3C=C(C)C=CN3C2=O)cc1 | 5 | 1 | -3 | 18 | -2 |
| CC1=CC2=NC(=O)/C(=C\Nc3ccc([N+](=O)[O-])cn3)C(=O)N2C=C1 | 36 | 23 | 3 | 48 | 6 |
| CC1=CC2=NC(=O)/C(=C\Nc3cccc(F)c3)C(=O)N2C=C1 | 3 | – | – | 28 | – |
| CC1=CC2=NC(=O)/C(=C\Nc3ccc(F)cc3)C(=O)N2C=C1 | 21 | 14 | 1 | 35 | 6 |
| CC1=CC2=NC(=O)CC(=O)N2C=C1 | 26 | 12 | 1 | 39 | 6 |
| CC1=CC2=NC(=O)/C(=C\NNC(=O)c3ccc([N+](=O)[O-])cc3)C(=O)N2C=C1 | 60 | 54 | 6 | 87 | 21 |
| CC1=CC2=NC(=O)/C(=C\Nc3c(C)cc(C)cc3C)C(=O)N2C=C1 | -8 | -1 | – | 0.2 | -6 |
| CC(=O)c1ccccc1N/C=C1\C(=O)N=C2C=C(C)C=CN2C1=O | 54 | 32 | 11 | 69 | 19 |
| CC(=O)c1cccc(N/C=C2\C(=O)N=C3C=C(C)C=CN3C2=O)c1 | 28 | 8 | -1 | 45 | 3 |
| CC1=CC2=NC(=O)/C(=C\NNC(=O)c3ccc(Cl)cc3)C(=O)N2C=C1 | 14 | 6 | -4 | 43 | -2 |
| CC1=CC2=NC(=O)/C(=C\Nc3ccccc3F)C(=O)N2C=C1 | 44 | 26 | 3 | 57 | 10 |
| CC1=CC2=NC(=O)/C(=C\NNC(=O)c3ccccc3)C(=O)N2C=C1 | 13 | 6 | -1 | 26 | 1 |
| CC1=CC2=NC(=O)/C(=C\Nc3ccc(C)cn3)C(=O)N2C=C1 | 48 | 24 | 3 | 57 | 11 |
| NC(N)=S | 21 | 15 | 8 | 94 | 8 |
| CC1=CC2=NC(=O)/C(=C\Nc3ccccc3S)C(=O)N2C=C1 | 73 | 60 | 22 | 97 | 28 |
| CC1=CC2=NC(=O)/C(=C\NNC(=O)c3ccc(Br)cc3)C(=O)N2C=C1 | 23 | 3 | -8 | 57 | -2 |
